Reference: patent US20190233884A1 (University of Southern California, priority 2016, published 2019)

Test system: patients with refractory metastatic colorectal cancer (mCRC)
Experiment: PFS, OS and disease control in the training (evaluation) cohort of refractory mCRC patients receiving TAS-102 (n=52, Japan), by baseline characteristics, SNP genotype and toxicity
Type: in vivo, human
Conditions: for OS HR (95% CI)‡ / PFS HR (95% CI) ‡: multivariable; for OS HR (95% CI)† / PFS HR (95% CI) † / OS HR (95% CI) / PFS HR (95% CI): univariate
Method: All patients underwent the treatment in salvage-line setting. […]
(§1) Genomic DNA was extracted from peripheral whole blood in patients of all cohorts using the QIAmp Kit (Qiagen, Valencia, Calif., USA) according to the manufacturer's protocol (www.qiagen.com). The candidate SNPs were genotyped using PCR-based direct DNA sequence analysis by ABI 3100A Capillary Genetic Analyzer and Sequencing Scanner v1.0 (Applied Biosystems). Amplification of extracted DNA was carried out using both forward and reverse primers for each gene polymorphism as shown in Table 1. […] The investigators analyzing SNPs were blinded to the clinical data of the study patients.
The primary endpoint in this study was progression-free survival (PFS), and the secondary endpoints were overall survival (OS) and disease control rate (DCR). PFS was calculated from the date of starting treatment to the first observation of disease progression or death from any cause. If a patient had no disease progression or death, PFS was censored at the date of last follow up. OS was calculated from the date of starting treatment until the date of death from any cause or the date of the last follow-up, at which point OS was censored. The disease control rate (DCR) was defined as the proportion of patients who achieved a stable disease (SD) or […] according to RECISTv1.1. Chi-square test was used to examine the difference in baseline patient characteristics among the three cohorts. Allelic distribution of all SNPs by ethnicity for deviation from Hardy-Weinberg equilibrium and the allelic frequencies of SNPs were tested using the Chi-square tests with one degree of freedom. The associations between candidate SNPs and disease control, and toxicities were examined using contingency tables and Fisher's exact test. The associations of SNPs with PFS and OS were analysed using Kaplan-Meier curves and the log-rank test. Because the true mode of inheritance of candidate SNPs was not established yet, a codominant or dominant genetic model if appropriate was considered.
All patients underwent the treatment in salvage-line setting. […] In all patients, adverse events were graded according to the Common Terminology Criteria for Adverse Events, version 4.0. […]
as §1, with “tested” for “genotyped”, “Biosystems).” for “Biosystems). Amplification of extracted DNA was carried out using both forward and reverse primers for each gene polymorphism as shown in Table 1.”, “data.” for “data of the study patients.”
The primary endpoint in this study was progression-free survival (PFS), and the secondary endpoints were overall survival (OS) and disease control rate (DCR).

[1] = Che1 rs1564796 T/C and C/C grouped together
[2] = Che1 rs1564796 T/C and C/C grouped vs T/T
[3] = Evaluation cohort, Anemia grade <3
[4] = Evaluation cohort, Anemia grade ≥3
[5] = Evaluation cohort, Anemia grade ≥3 vs <3
[6] = Evaluation cohort, Anorexia grade <3
[7] = Evaluation cohort, Anorexia grade ≥3
[8] = Evaluation cohort, Anorexia grade ≥3 vs <3
[9] = Evaluation cohort, Diarrhea grade <3
[10] = Evaluation cohort, Diarrhea grade ≥3
[11] = Evaluation cohort, Diarrhea grade ≥3 vs <3
[12] = Evaluation cohort, Leukopenia grade <3
[13] = Evaluation cohort, Leukopenia grade ≥3
[14] = Evaluation cohort, Leukopenia grade ≥3 vs <3
[15] = Evaluation cohort, Nausea grade <3
[16] = Evaluation cohort, Nausea grade ≥3
[17] = Evaluation cohort, Nausea grade ≥3 vs <3
[18] = Evaluation cohort, Neutropenia grade <3
[19] = Evaluation cohort, Neutropenia grade ≥3
[20] = Evaluation cohort, Neutropenia grade ≥3 vs <3
[21] = FANCD2 rs6792811 G/A and G/G grouped together
[22] = FANCD2 rs6792811 G/A and G/G grouped vs A/A

Trifluridine/tipiracil [TAS-102]
OS HR (95% CI)‡ (CHEK2 rs22236142 G/C vs G/G): 0.55 (0.19, 1.58) | PFS HR (95% CI) ‡ (CHEK2 rs22236142 G/C vs G/G): 1.13 (0.55, 2.34) | OS HR (95% CI)† (CHEK2 rs22236142 G/C vs G/G): 0.78 (0.29, 2.11) | PFS HR (95% CI) † (CHEK2 rs22236142 G/C vs G/G): 1.43 (0.72, 2.84) | OS median, months (95% CI) (CHEK2 rs22236142 G/G): 8.1 (4.4, 14.8+) months | PFS median, months (95% CI) (CHEK2 rs22236142 G/G): 2.9 (1.6, 4.9) months | OS median, months (95% CI) (Che1 rs1045056 T/C): 12.4 (5.3, 12.4+) months | PFS median, months (95% CI) (Che1 rs1045056 T/C): 2.1 (1.2, 4.2) months | OS HR (95% CI)‡ (Che1 rs1045056 T/C vs T/T): 0.60 (0.19, 1.85) | PFS HR (95% CI) ‡ (Che1 rs1045056 T/C vs T/T): 1.70 (0.80, 3.64) | OS HR (95% CI)† (Che1 rs1045056 T/C vs T/T): 0.55 (0.18, 1.63) | PFS HR (95% CI) † (Che1 rs1045056 T/C vs T/T): 1.25 (0.61, 2.57) | OS median, months (95% CI) (Che1 rs1045056 T/T): 7.2 (5.4, 15.6+) months | PFS median, months (95% CI) (Che1 rs1045056 T/T): 2.9 (1.9, 3.5) months | OS median, months (95% CI) [1]: 12.4 (5.3, 12.4+) months | PFS median, months (95% CI) [1]: 2.1 (1.2, 4.6) months | OS HR (95% CI)‡ [2]: 0.60 (0.19, 1.87) | PFS HR (95% CI) ‡ [2]: 1.41 (0.65, 3.07) | OS HR (95% CI)† [2]: 0.56 (0.19, 1.68) | PFS HR (95% CI) † [2]: 1.17 (0.57, 2.40) | OS median, months (95% CI) (Che1 rs1564796 T/T): 7.2 (5.4, 15.6+) months | PFS median, months (95% CI) (Che1 rs1564796 T/T): 2.9 (2.0, 3.5) months | OS median, months (95% CI) [3]: 8.3 (5.7, 15.6+) months | PFS median, months (95% CI) [3]: 2.5 (2.0, 3.4) months | OS median, months (95% CI) [4]: 6.3 (2.0, 14.8+) months | PFS median, months (95% CI) [4]: 3.4 (1.5, 6.0+) months | OS HR (95% CI) [5]: 1.87 (0.74, 4.74) | PFS HR (95% CI) [5]: 0.70 (0.32, 1.53) | OS median, months (95% CI) [6]: 8.1 (5.7, 12.4+) months | PFS median, months (95% CI) [6]: 2.9 (2.1, 3.4) months | OS median, months (95% CI) [7]: 8.7 (1.4, 15.6+) months | PFS median, months (95% CI) [7]: 2.7 (0.9, 11.3) months | OS HR (95% CI) [8]: 0.85 (0.27, 2.69) | PFS HR (95% CI) [8]: 0.67 (0.27, 1.69) | OS median, months (95% CI) [9]: 8.3 (6.3, 12.4) months | PFS median, months (95% CI) [9]: 2.5 (2.0, 3.4) months | OS median, months (95% CI) [10]: 5.7 (2.0, 14.8+) months | PFS median, months (95% CI) [10]: 2.9 (1.8, 6.0+) months | OS HR (95% CI) [11]: 1.49 (0.49, 4.53) | PFS HR (95% CI) [11]: 0.88 (0.35, 2.26) | OS median, months (95% CI) [12]: 8.3 (4.9, 15.6+) months | PFS median, months (95% CI) [12]: 2.5 (1.9, 3.5) months | OS median, months (95% CI) [13]: 8.1 (5.7, 10.7+) months | PFS median, months (95% CI) [13]: 3.4 (1.6, 4.6) months | OS HR (95% CI) [14]: 0.73 (0.26, 2.01) | PFS HR (95% CI) [14]: 0.93 (0.45, 1.90) | OS median, months (95% CI) [15]: 8.1 (6.3, 14.8+) months | PFS median, months (95% CI) [15]: 3.3 (2.3, 3.7) months | OS median, months (95% CI) [16]: 5.7 (2.7, 12.4) months | PFS median, months (95% CI) [16]: 1.9 (1.6, 2.7) months | OS HR (95% CI) [17]: 1.58 (0.65, 3.83) | PFS HR (95% CI) [17]: 1.24 (0.62, 2.49) | OS median, months (95% CI) [18]: 6.3 (3.4, 15.6+) months | PFS median, months (95% CI) [18]: 2.1 (1.8, 3.0) months | OS median, months (95% CI) [19]: 8.3 (6.3, 14.8+) months | PFS median, months (95% CI) [19]: 3.4 (1.8, 4.9) months | OS HR (95% CI) [20]: 0.59 (0.24, 1.43) | PFS HR (95% CI) [20]: 0.68 (0.37, 1.28) | OS median, months (95% CI) (FANCD2 rs2272125 T/G): 7.2 (2.7, 7.8+) months | PFS median, months (95% CI) (FANCD2 rs2272125 T/G): 2.8 (1.6, 6.6+) months | OS HR (95% CI)‡ (FANCD2 rs2272125 T/G vs T/T): 1.38 (0.39, 4.90) | PFS HR (95% CI) ‡ (FANCD2 rs2272125 T/G vs T/T): 0.91 (0.35, 2.35) | OS HR (95% CI)† (FANCD2 rs2272125 T/G vs T/T): 1.66 (0.47, 5.83) | PFS HR (95% CI) † (FANCD2 rs2272125 T/G vs T/T): 0.98 (0.38, 2.51) | OS median, months (95% CI) (FANCD2 rs2272125 T/T): 8.3 (5.7, 15.6+) months | PFS median, months (95% CI) (FANCD2 rs2272125 T/T): 2.7 (2.1, 3.4) months | OS median, months (95% CI) (FANCD2 rs6792811 A/A): 8.7 (5.4, 14.8+) months | PFS median, months (95% CI) (FANCD2 rs6792811 A/A): 2.9 (2.1, 4.2) months | OS median, months (95% CI) [21]: 7.2 (3.3, 15.6+) months | PFS median, months (95% CI) [21]: 2.1 (1.5, 3.4) months | OS HR (95% CI)‡ [22]: 1.17 (0.48, 2.87) | PFS HR (95% CI) ‡ [22]: 1.43 (0.74, 2.74) | OS HR (95% CI)† [22]: 1.27 (0.52, 3.08) | PFS HR (95% CI) † [22]: 1.29 (0.68, 2.47) | Median OS (months) (JPN TAS-102 cohort, XRCC3 rs861539 G/G (n = 35)): 6.3 months | OS median, months (95% CI) (PCNA rs25406 A/A): 8.7 (5.3, 10.7+) months | PFS median, months (95% CI) (PCNA rs25406 A/A): 2.5 (1.4, 4.6) months | OS HR (95% CI)‡ (PCNA rs25406 A/A vs G/G): 0.55 (0.17, 1.84) | PFS HR (95% CI) ‡ (PCNA rs25406 A/A vs G/G): 0.65 (0.28, 1.51) | OS HR (95% CI)† (PCNA rs25406 A/A vs G/G): 0.67 (0.21, 2.19) | PFS HR (95% CI) † (PCNA rs25406 A/A vs G/G): 0.89 (0.39, 2.03) | OS median, months (95% CI) (PCNA rs25406 Any A): 8.1 (5.7, 15.6+) months | PFS median, months (95% CI) (PCNA rs25406 Any A): 3.3 (2.1, 3.5) months | OS HR (95% CI)‡ (PCNA rs25406 Any A vs G/G): 0.54 (0.22, 1.35) | PFS HR (95% CI) ‡ (PCNA rs25406 Any A vs G/G): 0.53 (0.27, 1.06) | OS HR (95% CI)† (PCNA rs25406 Any A vs G/G): 0.64 (0.26, 1.56) | PFS HR (95% CI) † (PCNA rs25406 Any A vs G/G): 0.74 (0.39, 1.42) | OS median, months (95% CI) (PCNA rs25406 G/A): 8.1 (5.7, 15.6+) months | PFS median, months (95% CI) (PCNA rs25406 G/A): 3.4 (1.9, 3.7) months | OS HR (95% CI)‡ (PCNA rs25406 G/A vs G/G): 0.54 (0.19, 1.52) | PFS HR (95% CI) ‡ (PCNA rs25406 G/A vs G/G): 0.46 (0.21, 1.02)
